# Experimental data published in paper PMC9996372, “Aim18p and Aim46p are chalcone isomerase domain–containing mitochondrial hemoproteins in Saccharomyces cerevisiae” (The Journal of Biological Chemistry, 2023).
# Columns and labels:
# AtFAP1-Nd45-WT = target: T1, AtFAP1-Nd45-WT (Arabidopsis thaliana, UniProt Q9M1X2); conditions: 5 μM protein, 50 μM fatty acid, 100 mM Hepes pH 7.5, 150 mM NaCl, 1 h at RT; versus DMSO
# T1 construct: gene FAP1
# AtCHI1-FL-WT = target: T2, AtCHI1-FL-WT (Arabidopsis thaliana, UniProt P41088); assay: chalcone isomerase assay, depletion of A381; type: biochemical; conditions: 10 nM protein, 200 μM naringenin chalcone, 50 mM Hepes pH 7.5, 150 mM NaCl, 5% EtOH; product naringenin
# T2 construct: gene CHI1; full-length; N-terminal 8X-His tag
# T2 sequence (P41088 1-246): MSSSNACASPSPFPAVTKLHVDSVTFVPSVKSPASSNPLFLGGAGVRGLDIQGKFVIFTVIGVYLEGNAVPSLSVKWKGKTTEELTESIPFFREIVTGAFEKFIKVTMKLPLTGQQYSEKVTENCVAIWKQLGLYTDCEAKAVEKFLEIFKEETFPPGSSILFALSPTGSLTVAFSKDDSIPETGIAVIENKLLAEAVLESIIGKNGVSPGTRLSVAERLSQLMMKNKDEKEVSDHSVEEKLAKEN
# T1 sequence (Q9M1X2 46-279): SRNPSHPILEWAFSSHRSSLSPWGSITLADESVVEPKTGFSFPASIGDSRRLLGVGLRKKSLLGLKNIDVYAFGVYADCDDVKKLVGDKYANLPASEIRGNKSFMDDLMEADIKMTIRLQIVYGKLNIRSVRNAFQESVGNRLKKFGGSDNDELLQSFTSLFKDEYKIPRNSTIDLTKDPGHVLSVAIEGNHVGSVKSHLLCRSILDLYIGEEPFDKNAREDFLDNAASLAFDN
smiles,measurement,setting,value
CC/C=C\C/C=C\C/C=C\CCCCCCCC(=O)O [Linolenic acid],ΔTm,AtFAP1-Nd45-WT,AtFAP1-Nd45-WT was the only protein stabilized by the addition of linolenic acid
O=C(/C=C/c1ccc(O)cc1)c1c(O)cc(O)cc1O [naringenin chalcone],"chalcone isomerase assay, depletion of A381",AtCHI1-FL-WT,Only AtCHI-WT rapidly converted naringenin chalcone to naringenin
